Reference: US9034891B2, “Bicyclic heterocyclic spiro compounds” (ISRAEL INSTITUTE FOR BIOLOGICAL RESEARCH, priority 2009, dated 2015)
Where “and” joins values, the source holds several entries; their conditions need not be identical. Equal values may be shown once. Entries after “also recorded” stand apart in the source; their conditions may differ.

Legend:
M2-M5 mAChR subtypes = experiment: Intracellular Ca2+ mobilization in cells stably transfected with M2-M5 mAChR subtypes; format: cell-based
From the text: To evaluate selectivity for a subtype of mAChR, in particular the M1 mAChR vs. M3 and MS mAChR, the assays were calibrated using ligands that have a combined activity, e.g. M1 agonistic and M3 antagonistic or M1 agonistic and MS antagonistic profiles, respectively. This can eliminate effects due to different receptor reserves in cell-based assays.

rat M1 mAChR = target: T1, rat M1 mAChR (Rattus norvegicus, UniProt P08482); experiment: αAPPs secretion in PC12 cells stably transfected with rat M1 mAChR; format: cell-based; settings: 0.1 nM to 1 μM, not observed in untransfected PC12
T1 construct: expressed in transfected cells; host or cells: rat pheochromocytoma PC12 cells
Description: α-APPs Secretion studies following incubation with the tested compounds were performed as described in Haring, et al. J. Neurochem., 1998, 71:2094-103. […] A day later, cells were washed twice with serum free media, and treated with the test compound at various concentrations ranging from 0.1 nM to 100 μM. […] After 1 hour the conditioned medium was collected to cold Eppendorf tubes, which included a protease inhibitor cocktail (0.1 mM phenylmethylsulphonyl fluoride (PMSF); 5 μg/ml leupeptin; 5 μg/ml pepstatin and 5 units/ml aprotinin) for determining αAPPs release. The protein content of each sample was concentrated using Centricon tubes (Amicon, Beverly, Mass.). […] CHO cells double transfected with human APP695 and M1 mAChR APPs bands were probed using anti-amyloid beta protein (1:1000, monoclonal 6E10 antibody, MAB1560, Chemicon) and peroxidase-linked rabbit anti mouse IgG (1:5,000; Jackson Immuno Research, PA). PC12 cells stably transfected with M1 mAChR APPs bands were probed using the anti-Alzheimer precursor protein A4 (1:4,000; monoclonal 22C11 antibody, Boehringer Mannheim) and the peroxidase-linked rabbit anti mouse IgG (1:20,000; Jackson Immuno Research, PA). […] Quantitative determination of the total APPs bands was performed by Scion Image program (NIH, Bethesda, USA). […]

PC12 cells = experiment: Mitochondrial apoptosis pathway, Bax and Bcl-2 immunoreactivity in PC12 cells; format: cell-based, rat
Description: These cells were partially differentiated (2-3 days), as observed under microscope. […] The pellet (rich mitochondrial fraction) was re-suspended with 200 μl Ripa buffer and lysed by rapid passage through a syringe needle (23G) for five to six times. The lysate was then used for further evaluation.
Bands were probed using the Rabbit Bax antibody (1:1000, Cell signaling, Cat. No. 2772) and Rabbit Bcl-2 antibody (1:1000, Cell signaling, Cat. No. 2870) followed by anti rabbit IgG (H&L) HRP (1:5,000, Jackson Immuno Research, 111-035-144).

Histamine 2 Receptor [1] = target: T2, Histamine 2 Receptor (Homo sapiens, UniProt P25021); experiment: High-throughput profiling, binding at 10 μM
From the text: (§1) It was specifically designed to provide information not only on potential limitations of drug candidates, but also for off-target activity identification. […] In a further extension of this study, functional studies were done on most of these receptors.

Sigma Receptor = experiment: High-throughput profiling, binding at 10 μM
From the text: as §1

5HT2A receptor = 5HT2A receptor (Homo sapiens, UniProt P28223); experiment: Functional study, agonist or antagonist
From the text: as §1

5HT2C Receptor = 5HT2C Receptor (Homo sapiens, UniProt P28335); experiment: Functional study, agonist or antagonist
From the text: as §1

Histamine 2 Receptor [2] = target: T2, Histamine 2 Receptor; experiment: Functional study, agonist or antagonist
From the text: as §1

rats = experiment: Passive avoidance, MK-801-induced impairment in rats; format: in vivo, rat
From the text: Trihexyphenidyl is a selective M1 muscarinic antagonist that crosses the blood brain barrier and induces memory and learning impairments (Bymaster et al., J Pharmacol Exp. Ther. 267: 16-24, 1993; Roldan et al., Neurosci. Lett. 230: 93-96, 1997; Kimura et al., Brain Res. 834: 6-12, 1999). […] Naive Wistar rats were used in the experiments below. The passive avoidance (PA) task consists of a training (acquisition) phase and a retention phase. In the training procedure each rat was individually placed in the small illuminated compartment and after 60 s. of familiarization/adaptation, the door to the large compartment was opened and the latency to enter was measured (Initial Latency) Immediately following entry into the dark compartment, the door was closed and inescapable foot shock (0.6 mA for 3 s) was delivered through the grid floor. […] After the acquisition trial the rat was returned to its home cage. Retention of the passive avoidance task was measured 24 h later, by again placing the rat in the light compartment and after a 60 s adaptation interval, the door was opened and the latency to re-enter the dark compartment was measured. […] Two separate experiments were conducted. […] In both experiments the rats were divided into 2 groups. One main group was treated with trihexyphenidyl (5 mg/kg, s.c) and the second main group was treated with vehicle (DDW-1 ml/kg, s.c.), 30 min before the shock.
MK-801 is an NMDA antagonist that induces cognitive behavioral impairments in rodents. […] In the first experiment (dose-finding study of MK-801) rats were divided into 4 groups. Three groups (N=27) were treated with MK-801 (50, 80 or 100 μg/kg, s.c) and the fourth group (N=10) was treated with vehicle (saline-1 ml/kg, s.c.), 30 min before the shock. […] One group (N=80) was treated with MK-801 (80 μg/kg, s.c) and the second group (N=59) was treated with the vehicle (saline-1 ml/kg, s.c.).

M1 mAChR [3] = target: T3, M1 mAChR (Homo sapiens, UniProt P11229)
T3 sequence (P11229 1-460): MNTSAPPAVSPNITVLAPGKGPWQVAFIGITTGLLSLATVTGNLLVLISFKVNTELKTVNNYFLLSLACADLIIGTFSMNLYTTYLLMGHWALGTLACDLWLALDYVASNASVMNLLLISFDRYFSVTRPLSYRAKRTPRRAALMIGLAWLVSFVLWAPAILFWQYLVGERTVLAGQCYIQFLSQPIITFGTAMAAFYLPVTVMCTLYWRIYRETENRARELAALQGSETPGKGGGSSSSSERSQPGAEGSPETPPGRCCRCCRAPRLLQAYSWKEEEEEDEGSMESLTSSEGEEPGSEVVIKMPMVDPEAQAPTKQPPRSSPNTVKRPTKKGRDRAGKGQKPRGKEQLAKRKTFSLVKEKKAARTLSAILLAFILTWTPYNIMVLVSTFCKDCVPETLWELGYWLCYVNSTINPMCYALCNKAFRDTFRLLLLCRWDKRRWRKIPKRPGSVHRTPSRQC

M1 mAChR [4] = target: T3, M1 mAChR; experiment: High-throughput profiling, binding at 10 μM; set-up: expressed in transfected cells
From the text: as §1

T2 sequence (P25021 whole entry): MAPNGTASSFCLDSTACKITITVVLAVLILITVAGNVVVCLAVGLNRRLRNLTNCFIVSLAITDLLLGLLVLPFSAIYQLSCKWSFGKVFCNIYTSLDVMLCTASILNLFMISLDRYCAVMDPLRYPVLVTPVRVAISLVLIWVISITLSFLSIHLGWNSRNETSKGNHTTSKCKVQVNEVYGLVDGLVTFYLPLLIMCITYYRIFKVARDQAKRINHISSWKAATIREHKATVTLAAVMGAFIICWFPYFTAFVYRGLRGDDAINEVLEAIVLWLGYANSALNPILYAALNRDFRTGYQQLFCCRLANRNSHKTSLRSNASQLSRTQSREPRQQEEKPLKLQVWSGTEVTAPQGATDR
T1 sequence (P08482 whole entry): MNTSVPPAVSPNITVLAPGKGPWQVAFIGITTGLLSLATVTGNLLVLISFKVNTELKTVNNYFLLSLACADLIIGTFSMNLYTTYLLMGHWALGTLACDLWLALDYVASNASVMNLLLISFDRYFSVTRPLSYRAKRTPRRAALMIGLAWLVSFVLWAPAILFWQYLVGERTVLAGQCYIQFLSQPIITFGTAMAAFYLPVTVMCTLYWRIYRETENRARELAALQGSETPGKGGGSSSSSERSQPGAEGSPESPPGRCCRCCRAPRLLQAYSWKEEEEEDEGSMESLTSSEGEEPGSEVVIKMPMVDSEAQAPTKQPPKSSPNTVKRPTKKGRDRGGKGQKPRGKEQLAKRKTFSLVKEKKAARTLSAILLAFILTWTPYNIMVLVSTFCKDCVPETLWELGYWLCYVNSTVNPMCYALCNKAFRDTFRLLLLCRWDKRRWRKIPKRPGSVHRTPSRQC
Sequence of 5HT2C Receptor (P28335 33-458): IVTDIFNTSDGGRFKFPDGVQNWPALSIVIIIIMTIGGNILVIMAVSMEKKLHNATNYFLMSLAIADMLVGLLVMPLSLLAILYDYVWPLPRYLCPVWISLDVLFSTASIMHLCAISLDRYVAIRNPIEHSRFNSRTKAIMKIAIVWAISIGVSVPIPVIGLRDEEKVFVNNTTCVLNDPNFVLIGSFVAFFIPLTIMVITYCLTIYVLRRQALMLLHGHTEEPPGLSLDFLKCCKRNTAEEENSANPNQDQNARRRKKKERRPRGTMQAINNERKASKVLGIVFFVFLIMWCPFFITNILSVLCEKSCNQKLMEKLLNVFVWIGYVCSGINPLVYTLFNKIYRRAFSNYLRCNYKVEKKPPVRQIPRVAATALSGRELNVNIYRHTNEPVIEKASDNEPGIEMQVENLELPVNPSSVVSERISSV
Sequence of 5HT2A receptor (P28223 whole entry): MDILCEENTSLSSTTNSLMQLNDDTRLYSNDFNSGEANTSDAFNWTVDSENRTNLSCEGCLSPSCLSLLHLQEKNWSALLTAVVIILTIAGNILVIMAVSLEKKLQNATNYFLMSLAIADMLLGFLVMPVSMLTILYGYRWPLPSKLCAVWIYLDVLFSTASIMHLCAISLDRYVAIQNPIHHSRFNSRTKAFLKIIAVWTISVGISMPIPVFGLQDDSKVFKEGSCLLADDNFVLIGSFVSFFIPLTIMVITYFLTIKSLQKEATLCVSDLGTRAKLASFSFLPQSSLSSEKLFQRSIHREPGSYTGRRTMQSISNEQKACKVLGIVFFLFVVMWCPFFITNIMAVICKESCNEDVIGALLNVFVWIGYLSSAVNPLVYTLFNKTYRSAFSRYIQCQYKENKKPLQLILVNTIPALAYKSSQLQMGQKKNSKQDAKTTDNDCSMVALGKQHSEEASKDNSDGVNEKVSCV

SMILES: C[C@@H]1SC2(CCN(C)CC2)CN1C(=O)CCc1c[nH]c2ccccc12 (single isomer, unassigned) [AF710B]
- agonistic activity on the M2-M5 mAChR subtypes (M2-M5 mAChR subtypes): did not show detectable agonistic activity
- release of αAPPs (rat M1 mAChR): enhanced the release of αAPPs
- Bax elevation after NGF deprivation (PC12 cells): attenuated Bax elevation
- Emax at 0.01 µM (PC12 cells; Rattus norvegicus, PC-12, 10 nM, read-out: Aβ 25-35 induced neurotoxicity expressed as Bax/Bcl2, maximum effect): 35%
- binding to Histamine 2 Receptor (Histamine 2 Receptor [1]): binds
- binding to Sigma Receptor (Sigma Receptor): binds
- agonist or antagonist activity on 5HT2A receptor (5HT2A receptor): inactive
- agonist or antagonist activity on 5HT2C receptor (5HT2C Receptor): inactive
- agonist or antagonist activity on histamine 2 receptor (Histamine 2 Receptor [2]): inactive
- retention latency (rats; 10 μg/kg po, MK-801 80 μg/kg sc, MK-801+DDW 94.7±24.7): 336.3 ± 70 s and 336.3 ± 70.0 s
- retention latency (rats; 30 μg/kg po, MK-801 80 μg/kg sc): 370.0 ± 60 s and 370.0 ± 57.0 s
- retention latency (rats; 100 μg/kg po, MK-801 80 μg/kg sc): 325.6 ± 66.6 s
- retention latency vs. MK-801 rats treated with DDW (rats; 1, 3 and 5 or 300 μg/kg, po): not significantly different
- retention latency (rats; AF710B 10 μg/kg with NE-100 1 mg/kg, MK801 80 μg/kg): 184.8 ± 58.0 s
- retention latency (rats; AF710B 30 μg/kg with NE-100 1 mg/kg, MK801 80 μg/kg): 227.3 ± 38.5 s
- cognitive enhancer dose range (rats; po, MK801-induced passive avoidance impairment): 0.01 to 0.1 mg/kg
- effect of brucine pre-incubation on elevation of intracellular calcium ions (M1 mAChR [3]): no such effect; also recorded: slight inhibition
- binding to M1 mAChR (M1 mAChR [4]): binds
